“And” between values parts separate entries of the source, which are not always exact repeats. Equal values may be shown once. Read-outs that look alike come from different tables or passages of the source. Marks after values point to notes of the source that are not given here.
What was measured:
[1] = human, in vivo, 75 mg
Description: (§1) The rifampicin open-label, fixed-sequence, single-center trial consisted of three visits to the study center (Fig. 1b). Subjects were screened during visit 1, which is 28 days prior to visit 2. […] Safety assessments were performed, and blood samples were collected for PK analysis up until day 15. Subjects were discharged from the study center on day 15. The final visit, visit 3, was for follow-up and took place 7–10 days after discharge.
(§2) Subjects received daily dosing of rifampicin 600 mg for 8 days to maximize the induction effect on CYP3A4 [10]. […] Fluids were not allowed from 1 h pre- until 1 h post-dose, with the exception of water needed to swallow investigational products.
(§3) Blood samples were collected prior to itraconazole or fluconazole administration on days 6 to 8 to determine trough itraconazole or fluconazole concentrations; rifampicin concentrations were measured at 2 h post-dose. In study B, the 4β-hydroxycholesterol to cholesterol concentration ratio was calculated as a biomarker of CYP3A4 induction. […] Samples were analyzed by Covance on behalf of AstraZeneca R&D, using an appropriate bioanalytical method [e.g., [11], [12]].
(§4) PK variables were summarized using descriptive statistics.
(§5) After addition of deuterated internal standard, samples were extracted by protein precipitation by the addition of 4 volumes of methanol:acetonitrile. After centrifugation, the supernatants were extracted to dryness under nitrogen at 50°C and reconstituted in methanol;water before analysis.

[2] = Frozen storage stability in plasma samples; conditions: plasma with K2EDTA; -20°C -80°C
Description: as §5

[3] = human, in vivo
Description: (§6) The phase I, open-label, single-center, double-crossover-sequence, partially randomized (for assignment to treatment sequence), three-period itraconazole/fluconazole trial consisted of four visits to the study center (Fig. 1a). Subjects were screened during visit 1, which is 28 days prior to visit 2.
(§7) On day 1 of visit 2, subjects were randomized to one of two treatment sequences and admitted for residence at the study center up to day 12; standardized meals were provided during residency. […] Safety assessments were performed, and blood samples were collected for PK analysis up until day 12. Subjects were discharged on day 12 and completed a washout period of at least 21 days.
(§8) During visit 3, dosing period 3 comprised days 1–11 when subjects received the alternate treatment regimen (fluconazole 400 mg on day 1 followed by 200 mg once daily thereafter or itraconazole 200 mg twice daily) in a crossover fashion. […] Subjects were discharged on day 12. A follow-up visit, visit 4, was scheduled for 7–10 days after discharge from the study center.
(§9) Fluids were not allowed from 1 h pre- until 1 h post-dose, with the exception of 240 mL water to swallow the capsules. Fluconazole was dosed with a light breakfast; there were no restrictions regarding dosing with food in the SPC [8]. Itraconazole was dosed with a light breakfast and dinner as per SPC guidelines to ensure complete absorption [9].
as §3, §4, §5

[4] = design: method as in earlier work; conditions: relative bioavailability trial NCT01635023; cited from earlier work
[5] = Study B: safety and tolerability (adverse events); type: in vivo, human
Description: Adverse events (reported by system organ class and preferred term using the Medical Dictionary for Regulatory Activities (MedDRA) version 17.0), vital signs, 12-lead electrocardiograms (ECGs), and clinical laboratory tests were recorded to assess safety and tolerability in both trials. Adverse events were collected from day 1, period 1 of visit 2, until the follow-up visit in each trial. Serious adverse events were collected from the time of informed consent until follow-up. Each adverse event was assigned to the period of study treatment in which it started or worsened. Additional information regarding safety and tolerability is included as Online Resource 3.
The safety analysis set included any subject who received at least one dose of any of the investigational products, and in addition in the itraconazole/fluconazole trial, for whom post-dose data were available.

[6] = Study B: plasma pharmacokinetics of single-dose selumetinib 75 mg alone or co-dosed with rifampicin; conditions: human, in vivo
Description: as §1, §2, §3, §4, §5

[7] = Study A: safety and tolerability (adverse events); type: in vivo, human
[8] = clinical; conditions: human, in vivo, 75 mg
Description: as §1, §2, §3, §4, §5

[9] = human
Description: as §5

[10] = Study A: plasma pharmacokinetics of single-dose selumetinib 25 mg alone or co-dosed with itraconazole or fluconazole; conditions: for AUC / Cmax / half-life: human, plasma, oral
Description: as §6, §7, §8, §9, §3, §4, §5

[11] = during single-agent (only) treatment
[12] = co-dosed with fluconazole vs selumetinib alone

O=C(NOCCO)c1cc2nc[nH]c2c(F)c1Nc1ccc(Br)cc1Cl [N-desmethyl selumetinib]
AUC(0–t), geometric least squares mean (GLSMR line) [1]: 347.3 ng·h/mL | C max, geometric least squares mean (GLSMR line) [1]: 106.4 ng/mL | MRAUC (AUC metabolite to parent ratio), arithmetic mean (SD) [1]: 0.0921 (0.0236)^a | MRAUC(0–t) (AUC(0–t) metabolite to parent ratio), arithmetic mean (SD) [1]: 0.0921 (0.0236) | MRCmax (C max metabolite to parent ratio), arithmetic mean (SD) [1]: 0.0760 (0.0187) | t 1/2 arithmetic mean (SD) [1]: 9.47 (3.24) h | t max median (min, max) [1]: 1.50 (1.00, 3.00) h | established frozen storage stability period [2]: 9 months | AUC(0–t), geometric least squares mean (GLSMR line) ([3]; 25 mg): 83.39 ng·h/mL | C max, geometric least squares mean (GLSMR line) ([3]; 25 mg): 35.67 ng/mL | MRAUC(0–t) (AUC(0–t) metabolite to parent ratio), arithmetic mean (SD) ([3]; 25 mg): 0.0760 (0.0227) | MRCmax (C max metabolite to parent ratio), arithmetic mean (SD) ([3]; 25 mg): 0.0917 (0.0312) | t 1/2 arithmetic mean (SD) ([3]; 25 mg): 4.66 (2.38) h | t max median (min, max) ([3]; 25 mg): 1.00 (0.50, 2.50) h

Cn1cnc2c(F)c(Nc3ccc(Br)cc3Cl)c(C(=O)NOCCO)cc21 [Selumetinib]
within-subject coefficient of variation (CV) for AUC [4]: 16.9% | within-subject coefficient of variation (CV) for C max [4]: 34.0% | relation of adverse events to selumetinib treatment ([5]; all adverse events mild): unrelated | subjects reporting at least one adverse event ([5]; selumetinib co-dosed with rifampicin, one subject (erythema)): 4.5% | subjects reporting at least one adverse event ([5]; selumetinib-only treatment, four subjects): 18.2% | tolerability ([5]; single dose or co-administered with rifampicin): well tolerated | C max, geometric least squares mean (GLSMR line) [1]: 1441 ng/mL | CL/F arithmetic mean (SD) [1]: 17.0 (3.33) L/h | AUC [6]: 4480 ng·h/mL | subjects reporting adverse events [7, 11]: 7.7% | subjects with selumetinib-related adverse events (diffuse alopecia, headache; mild) ([7]; selumetinib and itraconazole co-dosing, n = 2): 8.3% | subjects reporting adverse events ([7]; selumetinib co-dosed with fluconazole, 4/22): 18.2% | subjects with selumetinib-related acne (mild) ([7]; selumetinib co-dosed with fluconazole, one subject): 4.5% | subjects reporting headache ([7]; selumetinib co-dosed with itraconazole, n = 4/24): 16.7% | subjects reporting adverse events ([7]; selumetinib co-dosed with itraconazole, n = 7/24): 29.2% | subjects reporting a moderate adverse event (headache) ([7]; selumetinib co-dosed with itraconazole, one subject): 4.2% | tolerability ([7]; single dose or co-administered with itraconazole or fluconazole): well tolerated | Tmax [8]: 1.27 h | AUC ([8]; AUC, geometric least squares mean (GLSMR line)): 4480 ng·h/mL | half-life ([8]; t 1/2 arithmetic mean (SD)): 9.27 h | established frozen storage stability period [9]: 24 months | AUC increased by [10, 12]: 53% and ~ 50% | C max increased by [10, 12]: 26% | AUC ([10]; 25 mg, AUC (CV%), study A, selumetinib 25 mg alone, N = 26): 1180 ng·h/mL | AUC ([10]; 25 mg, AUC, geometric least squares mean (GLSMR line), study A, selumetinib 25 mg alone, n = 26, linear mixed-effects model): 1180 ng·h/mL | Cmax ([10]; 25 mg, C max (CV%), study A, selumetinib 25 mg alone, N = 26): 409 ng/mL | Cmax ([10]; 25 mg, C max, geometric least squares mean (GLSMR line), study A, selumetinib 25 mg alone, n = 26, linear mixed-effects model): 409 ng/mL | half-life ([10]; 25 mg, t 1/2 arithmetic mean (SD), study A, selumetinib 25 mg alone, N = 26): 8.24 h | AUC ([10]; AUC (CV%), study A, selumetinib 25 mg + fluconazole, N = 22): 1770 ng·h/mL | AUC ([10]; AUC (CV%), study A, selumetinib 25 mg + itraconazole, N = 24): 1760 ng·h/mL | AUC ([10]; AUC, geometric least squares mean (GLSMR line), study A, selumetinib 25 mg + fluconazole, n = 22, linear mixed-effects model): 1820 ng·h/mL | AUC ([10]; AUC, geometric least squares mean (GLSMR line), study A, selumetinib 25 mg + itraconazole, n = 24, linear mixed-effects model): 1770 ng·h/mL | Cmax ([10]; C max (CV%), study A, selumetinib 25 mg + fluconazole, N = 22): 509 ng/mL | Cmax ([10]; C max (CV%), study A, selumetinib 25 mg + itraconazole, N = 24): 484 ng/mL | Cmax ([10]; C max, geometric least squares mean (GLSMR line), study A, selumetinib 25 mg + fluconazole, n = 22, linear mixed-effects model): 513 ng/mL | Cmax ([10]; C max, geometric least squares mean (GLSMR line), study A, selumetinib 25 mg + itraconazole, n = 24, linear mixed-effects model): 484 ng/mL | half-life ([10]; mean t 1/2 prolonged by, co-dosed with fluconazole vs selumetinib alone): ~1.5 h | half-life ([10]; mean terminal half-life (t 1/2) prolonged by, co-dosed with itraconazole vs selumetinib alone): ~6 h | half-life ([10]; t 1/2 arithmetic mean (SD), study A, selumetinib 25 mg + fluconazole, N = 22): 9.75 h | half-life ([10]; t 1/2 arithmetic mean (SD), study A, selumetinib 25 mg + itraconazole, N = 24): 14 h | CL/F arithmetic mean (SD) ([10]; study A, selumetinib 25 mg + fluconazole, N = 22): 14.8 (4.39) L/h | CL/F arithmetic mean (SD) ([10]; study A, selumetinib 25 mg + itraconazole, N = 24): 14.9 (4.92) L/h | CL/F arithmetic mean (SD) ([10]; study A, selumetinib 25 mg alone, N = 26): 21.9 (5.76) L/h

OC(Cn1cncn1)(Cn1cncn1)c1ccc(F)cc1F [fluconazole, reference compound]
subjects reporting adverse events [7, 11]: 17.4% | trough plasma concentration (geometric mean) [3]: 5590 to 5730 ng/mL

CCC(C)n1ncn(-c2ccc(N3CCN(c4ccc(OCC5COC(Cn6cncn6)(c6ccc(Cl)cc6Cl)O5)cc4)CC3)cc2)c1=O (centres unmarked) [itraconazole, reference compound]
subjects reporting adverse events [7, 11]: 20.8%

CO[C@H]1/C=C/O[C@@]2(C)Oc3c(C)c(O)c4c(O)c(c(/C=N/N5CCN(C)CC5)c(O)c4c3C2=O)NC(=O)/C(C)=C\C=C\[C@H](C)[C@H](O)[C@@H](C)[C@@H](O)[C@@H](C)[C@H](OC(C)=O)[C@@H]1C [rifampicin, reference compound]
subjects reporting adverse events ([5]; period of rifampicin administration (days 4–11)): all subjects | subjects reporting chromaturia ([5]; period of rifampicin administration (days 4–11), resolved 2 to 3 days after treatment ceased): reported by all of these subjects

From PMC5226997 (European Journal of Clinical Pharmacology, 2016)
